Series [1] relates to L3.6pl res. Nature of the series: MTT proliferation assay, L3.6pl res (gemcitabine-resistant). The class given is cell-based, human. The protocol:
(§1) The cell lines used for the proliferation assays were cultured in different media. The cell lines Pan-1, Panc-2 and BxPC3, which have been derived from the human ductal pancreatic adenocarcinoma (PDAC), were cultured in Dulbecco's modified Eagle medium (DMEM) (Sigma), that was supplemented with 1% penicillin/streptomycin (Life technologies/GIBCO 15140-122) and 10% fetal bovine serum (Life technologies/GIBCO 100500-064). The cell line L3.6pl was cultured in RPMI 1640 medium (Life technologies/GIBCO 72400-21) that was supplemented with 1% penicillin/streptomycin and 10% fetal bovine serum. A sub-clone of the cell line L3.6pl, that was designated L3.6pl res, was resistant to gemcitabine and was also cultured in RPMI 1640 medium (Life technologies/GIBCO 72400-21) that was supplemented with 1% penicillin/streptomycin, 10% fetal bovine serum and 2 μM gemcitabine (GEMZAR, Lily). The human immortalized, non-malignant cell line of the ductal pancreatic epithelium (HPDE) was cultured in keratinocyte-SFM (Life technologies/GIBCO) that was supplemented with 10% fetal bovine serum, 1% penicillin/streptomycin and 1% epidermal growth factor (EGF).
(§2) The proliferation rates of the cell lines were determined after stimulation with (i) biperiden, (ii) mepazine, and (iii) stimulation with both active ingredients. For this purpose, cells were seeded in plates with 96 wells at 5000 cells per well and incubated overnight at 37° C. and 5% CO2. Next morning, the blanket values were measured at 490 nm in an ELISA reader (FLUOstar Omega, BMG LABTECH) after the addition of 100 μL medium and 20 μL MTT substrate (CellTiter 96 AQueous One Solution Cell Proliferation Assay, Promega). Biperiden was added in increasing concentrations (3.71 μg/ml, 11.1 μg/ml und 29.6 μg/ml) in the form of solutions of biperiden hydrochloride (B5311 SIGMA-Aldrich, USA) and DMSO. […] The ex-tinction was measured every 24 hours during a period of 72 hours.
(§3) The normal distribution of the results was analyzed by Kolgomorov-Smirnov test and Shapiro-Wilk test. Non-parametric variables were analyzed using the Mann-Whitney-U test. […]
In general terms: Tetrazolium assays rely on reduction of a dye to a coloured formazan, in cell work by metabolically active cells.

Series [2] deals with L3.6pl wt. Description: MTT proliferation assay, L3.6pl wt. The class given is cell-based, human. The protocol:
(§4) The cell lines used for the proliferation assays were cultured in different media. The cell lines Pan-1, Panc-2 and BxPC3, which have been derived from the human ductal pancreatic adenocarcinoma (PDAC), were cultured in Dulbecco's modified Eagle medium (DMEM) (Sigma), that was supplemented with 1% penicillin/streptomycin (Life technologies/GIBCO 15140-122) and 10% fetal bovine serum (Life technologies/GIBCO 100500-064). The cell line L3.6pl was cultured in RPMI 1640 medium (Life technologies/GIBCO 72400-21) that was supplemented with 1% penicillin/streptomycin and 10% fetal bovine serum. […]
(§5) The proliferation rates of the cell lines were determined after stimulation with (i) biperiden, (ii) mepazine, and (iii) stimulation with both active ingredients. […] Next morning, the blanket values were measured at 490 nm in an ELISA reader (FLUOstar Omega, BMG LABTECH) after the addition of 100 μL medium and 20 μL MTT substrate (CellTiter 96 AQueous One Solution Cell Proliferation Assay, Promega). […] The ex-tinction was measured every 24 hours during a period of 72 hours.
as §3

The subject of series [3] is Panc-2. Description: MTT proliferation assay, Panc-2. The class given is cell-based, human. The method, then:
as §1, §2, §3

The subject of series [4] is pancreatic cancer cell lines. Description: MTT proliferation assay, all pancreatic cancer cell lines. The class given is cell-based, human. The conditions noted are these: in the presence of biperiden, mepazine or a combination. The protocol:
as §4, §5, §3

Series [5] concerns human Panc-1 tumor cells. Nature of the series: Mouse xenograft model with subcutaneous Panc-1 tumor cells. The conditions noted are these: for size of the subcutaneous tumor: daily i.p. treatment, 16 mg/kg mepazine; for size of the subcutaneous tumor / tumor sizes compared to the control groups: 10 mg/kg biperiden; for tumor sizes compared to the control groups: daily i.p., 16 mg/kg mepazine or both. Type of series: in vivo, pfp−/−/rag2−/− double knockout mice. An excerpt: For the mouse xenograft model pfp−/−/rag2−/− double knockout mice were used. […] Owing to the inactivated rag2 gene, the mouse lacks mature T or B lymphocytes. The mouse model was developed by the Taconic Institute (Quality Laboratory Animals and Services for Research, DK8680 Ry, Taconic Europe, Denmark) by crossing the PFPN12 mouse model with the RAGN12 mouse model. This model was back crossed over 12 generations (N12) with C57BL/6NTac, and the colony was maintained by homozygous pairing. The mouse model was used in the course of the present invention with PDAC cells of the cell line Panc-1, which were administered subcutaneously. 12 days after subcutaneous injection of 10^6 human Panc-1 tumor cells, the mice were treated daily either with 16 mg/kg mepazine i.p. (n=10), 10 mg/kg biperiden (n=10) i.p. or with a combination of both active ingredients, that is with 16 mg/kg mepazine and 10 mg/kg biperiden (n=10) i.p. The control group (n=10) was not treated. The daily treatment was performed under identical, standardized conditions. The same 3-days-cycle was used over the complete period of the study: day one comprised the injection of the medication and the determination of the bodyweight by weighing. Day 2 comprised the injection of the medication and the determination of the subcutaneous tumor growth with a caliper. Day 3 comprised the injection of the medication and neuroscoring. […] After euthanizing, the subcutaneous tumors were removed from the mice. Prior to the surgery, the body of the mouse was disinfected with ethanol. The skin above the tumor was carefully incised, and the tumor was surgically removed from the adjacent tissue. After removal, the tumor was weighed and measured. For evaluation only mice were used which had developed a tumor. […] The volumes of the subcutaneous tumors were measured with a caliper after removal and calculated using the formula length× width^2 as described in [8]. […] The average tumor size in the control group was 729.33 mm^3±186.25 mm^3 compared to 130.43 mm^3±63.96 mm^3 in the group that was treated with mepazine (p=0.002; one-sided Fisher's exact test).

The subject of series [6] is lung carcinoma cell lines A549 und H1299. Nature of the series: MTT proliferation assay, lung carcinoma cell lines. The class given is cell-based, human. The conditions noted are these: concentrations as in Example 1. The protocol: The proliferation rates of the cell lines were determined after stimulation with (i) biperiden, (ii) mepazine, and (iii) stimulation with both active ingredients. For this purpose, cells were seeded in plates with 96 wells at 5000 cells per well and incubated overnight at 37° C. and 5% CO2. Next morning, the blanket values were measured at 490 nm in an ELISA reader (FLUOstar Omega, BMG LABTECH) after the addition of 100 μL medium and 20 μL MTT substrate (CellTiter 96 AQueous One Solution Cell Proliferation Assay, Promega). Biperiden was added in increasing concentrations (3.71 μg/ml, 11.1 μg/ml und 29.6 μg/ml) in the form of solutions of biperiden hydrochloride (B5311 SIGMA-Aldrich, USA) and DMSO. Mepazine was added in increasing concentrations (15 μM and 25 μM) in the form of solutions of mepazine hydrochloride (MALT1 Inhibitor II, Calbiochem Merck, Millipore Billerica, USA). Combinations of both mepazine and biperiden were added in the following concentrations: 15 μM mepazine+3.71 μg/ml biperiden; 25 μM mepazine+3.71 μg/ml biperiden. The ex-tinction was measured every 24 hours during a period of 72 hours. […]

Here are results for two compounds from patent US20180153870A1, “BIPERIDEN FOR TREATING CANCER” (Universitätsklinikum Hamburg-Eppendorf, priority 2015, published 2018).

Turning to `OC(CCN1CCCCC1)(c1ccccc1)C1CC2C=CC1C2` (stereo not shown) [biperiden], the “reduction of proliferation rate” value in series [1] (29.6 μg/ml biperiden, p=0.022) was 71.6%; in series [3] (29.6 μg/ml biperiden, trend, p=0.077), 98.2%. For the same compound, the “reduction in the proliferation rate” value in series [2] (29.7 μg/ml biperiden, p=0.02) is recorded as 96.4%; in series [4], “massive reduction”. In addition, the “size of the subcutaneous tumor” value in series [5] (Panc-1 xenograft) is on record as “significantly reduced”. The “tumor sizes compared to the control groups” value in series [5] (Panc-1 xenograft) was “visibly smaller”. In series [5] (mice, 10 mg/kg biperiden i.p. daily), the compatibility of administration entry is “good compatibility”. The “motor activity compared to mice that received mepazine or no medication” value in series [5] (mice, 10 mg/kg biperiden i.p. or 16 mg/kg mepazine and 10 mg/kg biperiden i.p., daily) was “motorically more active”. Also, the “proliferation of lung carcinoma cell lines” value in series [6] is on record as “inhibited proliferation”.

For the compound `CN1CCCC(CN2c3ccccc3Sc3ccccc32)C1` (stereo not shown) [mepazine], the “reduction of proliferation rate” value in series [1] (15 μM mepazine, p=0.031) stood at 69.4%; in series [3] (15 μM mepazine, p=0.008), 56.1%; in series [3] (25 μM mepazine, p=0.001) it was 86.9%. Also, the proliferation entry in series [1] (25 μM mepazine, p=0.002) is on record as “completely stopped”. In addition, the “reduction in the proliferation rate” value is on record as 97.9% in series [2] (25 μM mepazine, p=0.004) and “massive reduction” in series [4]. Also, the average tumor size in series [5] (Panc-1 xenograft, 16 mg/kg mepazine i.p. daily, ±63.96 mm^3, control 729.33 mm^3±186.25 mm^3, p=0.002) is recorded as 130.43 mm^3. Moreover, the “size of the subcutaneous tumor” value in series [5] (Panc-1 xenograft) was “significantly reduced”. For the same compound, in series [5] (Panc-1 xenograft), the “tumor sizes compared to the control groups” value was “visibly smaller”. Further, the “proliferation of lung carcinoma cell lines” value in series [6] is on record as “inhibited proliferation”.
